Measurements taken from patent US20220033435A1, “Cyclic Di-Nucleotide Compounds as STING Agonists” (Merck Sharp & Dohme Corp., priority 2018, published 2022).

How the values were obtained:
[1] = tested on: THP1 cells; assay: IFN-β secretion in THP1 cell culture (5 h); type: cell-based, human; settings: cGAMP at 30 uM set at 100%
Experimental: IFN-β secretion in THP1 cell culture (5 h)
The ability of compounds to stimulate the secretion of interferon-beta from THP1 cells was measured using a human IFN-0 AlphaLISA kit (Perkin Elmer, Cat. No. AL265F). The basic protocol is as follows:
A Labcyte Echo 550 acoustic dispenser was used to transfer 120 nL of compound dissolved in DMSO into the wells of an empty, sterile 384-well microplate, (Corning, Cat. No. 3712). THP1 cells (American Type Culture Collection, Cat. No. TIB202) previously frozen in Recovery Medium (Life Technologies, Cat. No. 12648-010) were thawed and immediately diluted 10-fold into 37° C. assay medium (RPMI 1640+L-Glutamine & phenol red, Life Technologies, Cat. No. 11875-085; 0.5% heat inactivated fetal bovine serum, Sigma Aldrich, Cat. No. F4135; 1 mM Sodium Pyruvate, Life Technologies, Cat. No. 11360-070; 1× non-essential amino acids; Life Technologies, Cat. No. 11140-050). The cell viability and count was ascertained using a Beckman Coulter V-Cell XR cell counter. The cell suspension was centrifuged at 200×g for 5 min at RT. Cells were resuspended to a density of 0.8×10^6/mL in 37° C. assay medium. Subsequent liquid transfers were performed using either a Matrix electronic multichannel pipette or an Agilent Bravo Automated Liquid Handling Platform. The assay was started by dispensing 40 μL of the previously prepared cell suspension into the wells of the plate containing compounds. After 5 h incubation at 37° C., 5% CO2 in a humidified atmosphere, the plate of cells and compounds was centrifuged at 200×g for 5 min at RT. From each well, 5 μL of supernatant was transferred into corresponding wells of a white 384-well plate (Perkin Elmer, Cat. No. 6005620). To these supernatant-containing wells was added 10 μL of 5× Anti-Analyte Acceptor beads (50 μg/mL of AlphaLISA HiBlock Buffer) and incubated for 30 min at RT while shaking on an orbital plate shaker. To each well was added 10 μL of 5× Biotinylated Antibody Anti-analyte (5 nM in AlphaLISA HiBlock Buffer) and incubated on an orbital plate shaker for 60 min at RT or overnight at 4° C. To each well was added 25 μL of 2×SA-Donor beads (80 μg/mL in AlphaLISA HiBlock Buffer) and incubated for 30-45 min at RT in the dark while shaking on an orbital plate shaker. The plate was then read on a Perkin Elmer Envision (λex=680 nm, […]). The percent effect of the AlphaLISA signal at each compound concentration was calculated based on 30 uM cGAMP positive controls and 0.3% DMSO negative controls. The plot of percent effect versus the log of compound concentration was fit with a 4-parameter concentration response equation to calculate EC50 values. The test compounds were tested at concentrations 30000, 10000, 3333, 1111, 370.4, 123.4, 41.2, 13.7, 4.6, and 1.5 nM with 0.3% residual DMSO. The control compound, cGAMP was tested at concentrations 100000, 33333, 11111, 3704, 1235, 412, 137, 46, and 15 nM with 0.3% residual DMSO.
Compounds of the disclosure were evaluated for IFN-β secretion in THP1 cell culture as described above. The following table tabulates the biological data for these compounds as percent activation relative to 2′3′-cGAMP at the 30 μM concentration.

[2] = target: T1, full-length HAQ STING (Homo sapiens, UniProt Q86WV6, G230A/H232R/R293Q/R71H); assay: 3H-cGAMP filtration binding assay (HAQ STING); settings: competition with tritiated cGAMP ligand, HAQ STING membrane
T1 construct: Full-Length HAQ STING [STING(1-379)R71H, G230A, H232R,; made in house; host or cells: Trichoplusia ni (Hi-Five) insect cells infected with baculovirus; washed membranes were used
T1 sequence (Q86WV6 with tags, fused parts or gaps R71H/G230A/H232R/R293Q): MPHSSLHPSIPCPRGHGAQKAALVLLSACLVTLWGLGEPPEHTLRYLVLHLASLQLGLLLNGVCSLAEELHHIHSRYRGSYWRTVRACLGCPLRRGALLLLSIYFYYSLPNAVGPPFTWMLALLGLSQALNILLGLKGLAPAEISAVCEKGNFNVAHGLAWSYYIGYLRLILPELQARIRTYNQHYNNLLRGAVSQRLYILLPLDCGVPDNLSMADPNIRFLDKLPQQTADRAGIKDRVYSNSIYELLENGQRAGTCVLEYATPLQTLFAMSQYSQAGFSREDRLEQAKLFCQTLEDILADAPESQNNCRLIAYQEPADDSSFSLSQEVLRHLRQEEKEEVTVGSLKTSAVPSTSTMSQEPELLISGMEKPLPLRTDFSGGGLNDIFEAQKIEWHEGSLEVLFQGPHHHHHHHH
Description: The ability of compounds to bind STING is quantified by the ability to compete with tritiated cGAMP ligand for human STING receptor membrane using a radioactive filter-binding assay. The binding assay employs STING receptor obtained from Hi-Five cell membranes overexpressing full-length HAQ STING prepared in-house and tritiated cGAMP ligand also purified in-house.
The ability of compounds to bind STING is quantified by their ability to compete with tritiated cGAMP ligand for human STING receptor membrane using a radioactive filter-binding assay. The binding assay employs STING receptor obtained from Trichoplusia ni cell membranes (T.ni; Expression Systems, cat #94-002F, www.expressionsystems.com) overexpressing full-length HAQ STING and tritiated cGAMP ligand.
The basic HAQ STING filtration assay protocol is as follows:
Compound and membrane then preincubated for 60 min at RT to allow compound binding to equilibrate. Following equilibration, 8 nM of [^3H]c-GAMP ligand was prepared by diluting into assay buffer, and 50 uL of this working stock was then manually added to each well of the assay plate. […] The filter plates were then dried at 55° C. for 30 min using a pressurized oven before 30 uL of ULTIMA GOLD F scintillate was added to each well. Tritium levels for each reaction well were then measured using a PerkinElmer TopCount plate reader.
After normalization to controls, the percent activity for each compound concentration was calculated by measuring the amount of remaining radioactivity. The plot of percent activity versus the log of compound concentration was fit with a 4-parameter dose response equation to calculate EC50 values.

Nc1nc2c(ncn2[C@@H]2O[C@@H]3COP(=O)(S)O[C@@H]4[C@@H](O)[C@H](n5cnc6c(N)ncnc65)O[C@@H]4COP(=O)(S)O[C@@H]2C3)c(=O)[nH]1 (stereo partly drawn) [Example 3, 2-amino-9-[(5S,7R,8R,12aR,14R,15R,15aR)-14-(6-amino-9H-purin-9-yl)-15-hydroxy-2,10-dioxido-2,10-disulfanyloctahydro-12H-5,8-methanofuro[3,2-l][1,3,6,9,11,2,10]penta-oxadiphosphacyclotetradecin-7-yl]-1,9-dihydro-6H-purin-6-one]
% Effect at 30 μM relative to 2′3′-cGAMP [1]: 63%

Nc1nc2c(ncn2[C@@H]2O[C@@H]3COP(=O)(S)O[C@@H]4C[C@H](n5cnc6c(N)ncnc65)O[C@@H]4COP(=O)(S)O[C@@H]2[C@@H]3F)c(=O)[nH]1 (single isomer, unassigned) [Example 2]
% Effect at 30 μM relative to 2′3′-cGAMP [1]: 114%

Nc1ncnc2c1ncn2[C@@H]1O[C@@H]2COP(=O)(S)O[C@@H]3[C@H](O)[C@@H](COP(=O)(S)O[C@@H]2[C@H]1O)O[C@H]3n1ccc(=O)n2ccnc12 (single isomer, unassigned) [Example 5]
EC50 [2]: 4410 nM
% Effect at 30 μM relative to 2′3′-cGAMP [1]: 62%

Nc1ncnc2c1ncn2[C@@H]1O[C@@H]2COP(=O)(S)O[C@@H]3[C@H](O)[C@@H](COP(=O)(S)O[C@@H]2[C@H]1O)O[C@H]3n1ccc(=O)n2ccnc12 (single isomer, unassigned) [Example 4]
EC50 [2]: 3690 nM
% Effect at 30 μM relative to 2′3′-cGAMP [1]: 30%

Nc1nc2c(ncn2[C@@H]2O[C@@H]3COP(=O)(S)O[C@@H]4C[C@H](n5cnc6c(N)ncnc65)O[C@@H]4COP(=O)(S)O[C@@H]2[C@@H]3F)c(=O)[nH]1 (single isomer, unassigned) [Example 1]
% Effect at 30 μM relative to 2′3′-cGAMP [1]: 112%

Nc1nc2c(ncn2[C@@H]2O[C@@H]3COP(=O)(S)O[C@@H]4[C@H](F)[C@H](n5cnc6c(N)ncnc65)O[C@@H]4COP(=O)(S)O[C@@H]2C3)c(=O)[nH]1 (single isomer, unassigned) [Example 6]
EC50 [2]: 48.6 nM
% Effect at 30 μM relative to 2′3′-cGAMP [1]: 61%

Nc1nc2c(ncn2[C@@H]2O[C@@H]3COP(=O)(S)O[C@@H]4[C@H](F)[C@H](n5cnc6c(N)ncnc65)O[C@@H]4COP(=O)(S)O[C@@H]2C3)c(=O)[nH]1 (single isomer, unassigned) [Example 7]
EC50 [2]: 2.35 nM
% Effect at 30 μM relative to 2′3′-cGAMP [1]: 118%
